Test results reported in patent publication US10471032B1, “Substituted glutaurine compounds and substituted glutaurine derivatives” (ThermoLife International, LLC, priority 2013, dated 2019).

Legend:
estradiol = test: Estradiol level in blood samples during oral administration to a human subject; type: in vivo; settings: for Estradiol: blood, one human subject, Day 0 before dosing 36
Protocol: (§1) To evaluate the effect of administration of glutaurine on estradiol and thyroid hormone levels in a human subject, approximately 800 micrograms (mcg) per day of glutaurine were administered orally to the subject over a period of about one month. At Day 0 prior to administration of the glutaurine and at Day 4 and Day 28 during administration of the glutaurine blood samples were collected and analyzed for the levels of estradiol, thyroid stimulating hormone (TSH), and the thyroid hormones triiodothyronine (T3) and thyroxine (T4). Total amounts of T3 and T4 were measured in the blood samples.

[1] = test system: thyroid stimulating hormone (TSH); test: TSH level in blood samples during oral administration to a human subject; type: in vivo; settings: for TSH: blood, one human subject, Day 0 before dosing 3.01
Protocol: as §1

thyroxine (T4) = test: Total T4 level in blood samples during oral administration to a human subject; type: in vivo; settings: for T4: total T4, blood, one human subject, Day 0 before dosing 8.3
Protocol: as §1

triiodothyronine (T3) = test: Total T3 level in blood samples during oral administration to a human subject; type: in vivo; settings: for T3: total T3, blood, one human subject, Day 0 before dosing 91
Protocol: as §1

human subject = test: Subject-reported effects during administration; type: in vivo; settings: oral approx. 800 mcg/day
Protocol: as §1
The subject also reported fat loss as a result of the glutaurine administration.

[2] = test system: estradiol and total testosterone; settings: men treated, Taxel et al. (2001); cited from earlier work
[3] = Day 4 of oral approx. 800 mcg/day
[4] = Day 28 of oral approx. 800 mcg/day
[5] = oral approx. 800 mcg/day for about one month, human subject
[6] = indicative of rising energy expenditure and metabolism

Row | SMILES | Estradiol (estradiol; [3]) [pg/mL] | Estradiol (estradiol; [4]) [pg/mL] | change in estradiol levels (estradiol; [5]) | TSH [1, 3] [mIU/L] | TSH [1, 4] [mIU/L] | change in TSH levels [1, 5] | change in T4 levels (thyroxine (T4); [5]) | T4 (thyroxine (T4); [3]) [µg/dL] | T4 (thyroxine (T4); [4]) [µg/dL] | change in T3 levels (triiodothyronine (T3); [5]) | T3 (triiodothyronine (T3); [3]) [ng/dL] | T3 (triiodothyronine (T3); [4]) [ng/dL] | body fat (subject-reported) (human subject) | body temperature (subject-reported) (human subject; [6]) | sweating (subject-reported) (human subject; [6]) | change in estradiol [2] | change in total testosterone [2]
1 | NC(CCC(=O)NCCS(=O)(=O)O)C(=O)O (centres unmarked) [glutaurine] | 32 | 30 | marked decrease | 3.28 | 2.74 | no significant change | slightly reduced | 7.9 | 7.3 | consistent increase | 96 | 109 | fat loss | increased body temperature | increased sweating | – | –
2 | CC(C)(C#N)c1cc(Cn2cncn2)cc(C(C)(C)C#N)c1 [anastrozole] | – | – | – | – | – | – | – | – | – | – | – | – | – | – | – | significant decrease | increase
